Reference: US20240115711A1, “Novel Bifunctional Molecules For Targeted Protein Degradation” (Amphista Therapeutics Limited, priority 2020, published 2024)
Read-outs that look alike come from different tables or passages of the source.

Key:
tumor cell lines [1] = assay: Cancer cell panel screening, GI50 by Sulforhodamine B method; assay type: cell-based; details: up to 94 tumor cell lines, 72 h
Method: Cancer cell panel screening was provided as a service from OncoLead GmbH & Co. KG. After a lag phase of 48 h, each cell line was treated with six different concentrations (10^−10, 10^−9, 10^−8, 10^−7, 10^−6, 10^−5 M) of either A2 or I-BET726 for 72 h. Concentrations to give half-maximal growth inhibition (GI50) were determined using the Sulforhodamine B method. Log(GI50) values were plotted as single points (I-BET726, cross; A2, dot) superimposed on the bar graph and plotted along the right y axis. Log ratio of the GI50 determined for I-BET726 versus the GI50 determined for A2 were plotted for each cell line tested (bars, left y axis).
Where no specific GI50 value could be determined, a GI50 of at least 10^−5 M was assumed to calculate the inhibitor vs degrader ratio.
Similar studies have previously been carried out on CRBN PROTAC (dBET6) and VHL PROTAC (MZ1) (see, for example, Ottis et al, ACS Chem. Biol. 2019, 14, 2215-2223 under identical assay conditions).
Low sensitivity/resistant defined as degrader GI50<inhibitor.

MV4;11 cells = assay: Assay 3 - MV4;11 cell viability using CellTiter-Glo assay; assay type: cell-based; details: Homo sapiens, 48 h incubation
Method: 1.3 Assay 3—MV4;11 Cell Viability Using CellTiter-Glo Assay
The anti-proliferative effects of representative compounds were measured using the CellTiter-Glo assay (Promega). MV4;11 cells were seeded into sterile, white, clear-bottomed 384-well cell-culture microplates (Greiner Bio-one), at 2× concentration in IMDM media and a volume of 25 μL. Test compounds were serially diluted (11-pt dose-response from 1 μM) in IMDM media to 2× concentration, then added to cells to make a final volume of 50 μL. Final DMSO concentration was 0.05%. After 48 h incubation, 25 μL of CellTiter-Glo reagent was added to each well. Following a 15 minutes incubation the luminescence signal was read on a CLARIOStar Plus. Data was processed and dose-response curves were generated using Prism 8 (Graphpad).
The impact on cell viability of MV4;11 cells was evaluated according to the procedure outlined in assay 3 for compounds A1, A2, A8 and A9.

tumor cell lines [2] = details: up to 94 tumor cell lines, from Ottis et al, identical assay conditions, cited from earlier work; for # tumor cell lines Low sensitivity/Resistant: degrader GI50 < inhibitor; for # tumor cell lines Highly sensitive: degrader GI50 >3 fold more potent than inhibitor
mutant KRas (G12C) = biological target: T1, mutant KRas (G12C) (Homo sapiens, UniProt P01116, G12C); assay: Assay 6 - Degradation of KRas-G12C by immunoblot (MIA-PaCa-2 cells); assay type: cell-based; details: after 24 h treatment with 1000 nM
T1 construct: endogenous in cells; host or cells: MIA-PaCa-2
Method: 1.6 Assay 6—Degradation of KRas-G12C by Immunoblot.
MIA-PaCa-2 cells were seeded in 6- or 12-well plates overnight prior to 24 h treatment with test compounds at the desired concentration (DMSO final concentration 0.1%). After 24 h incubation, cells were washed with PBS and lysed with RIPA buffer (Sigma) supplemented with 1 mM MgCl2, 1 U/mL Benzonase (Sigma), and 1× cOmplete Mini EDTA-free Protease Inhibitor Cocktail (Roche). Lysates were clarified by centrifugation (15,000×g, 20 min, 4° C.) and the total protein content of the supernatant was quantified using a BCA assay. Samples were prepared using equal amounts of total protein and LDS sample buffer (Invitrogen). […] Blots were visualised using a Bio-Rad ChemiDoc MP Imaging System, and band quantification was performed using Image Studio software (LiCor). […] Degradation data was plotted and analysed using Prism (Graphpad, version 8).
The degradation of target protein mutant KRas (G12C) was detected according to the procedure outlined in […] for the compound A64.

HiBit-BRD4 = biological target: T2, HiBit-BRD4 (Homo sapiens, UniProt O60885); assay: Assay 1 - Degradation of HiBit-BRD4 in HEK293; assay type: cell-based; details: HiBit-BRD4 HEK293, 6 h treatment
T2 construct: HEK293 containing a HiBit insertion for BRD4; endogenous in cells; host or cells: HEK293 with HiBit insertion at BRD4
Method: 1.1 Assay 1—Degradation of HiBit-BRD4 in HEK293
HEK293 containing a HiBit insertion for BRD4 were plated in 384-well tissue culture plates at a density of 8×10^4 per well in a volume of 36 μL and incubated overnight at 37° C. and 5% CO2. Wells were treated with test compounds for 6 h prior to addition of the NanoLuc substrate and reading on a […]. Degradation data was plotted and analysed using […] (Graphpad).
The degradation of target protein BRD4 was detected according to the procedure outlined in assay 1 for the following compounds.

[3] = In vivo systemic drug exposure after oral and intravenous dosing; details: female, mouse, plasma, C57BL/6 mice
Method: Test compound was administered to C57BL/6 mice, (6-8 weeks, 18-20 g, female, N=6, purchased from JH Laboratory Animal Co. with free access to food and water) at the indicated dose level via oral gavage (p.o., 10 mL/kg, 5% DMSO+95%(15% HP-β-CD in Water) vehicle, oral dosing leg) or tail vein (i.v., 5 mL/kg, 5% DMSO+95%(15% HP-β-CD in Water) vehicle, intravenous leg). The animal was restrained manually at designated time points up to 24 h, approximately 110 μL of blood sample was collected via facial vein into K2EDTA tubes. Blood sample was put on ice and centrifuged at 2000 g for 5 min to obtain plasma sample within 15 minutes which was analysed on an LC-MS/MS-19 (Triple Quad 5500) in positive ion ESI mode following sample prep and HPLC elution:
Mobile Phase: • Mobile Phase A: H2O—0.025% FA—1 mM NH4OAC • Mobile Phase B: MeOH—0.025% FA—1 mM NH4OAc
• Column: ACQUITY UPLC BEH C18 2.1*50 mm 1.7 um • Flow rate: 0.60 mL/min • Column temperature: 60° C.

[4] = In vivo drug exposure in the brain after systemic dosing; details: C57BL/6 mice, intravenous 5 mg/kg dose
Method: Blood collection: The animal was restrained manually at designated time points up to 24 h, approximately 110 μL of blood sample was collected via facial vein into K2EDTA tubes. Blood sample was put on ice and centrifuged at 2000 g for 5 min (4° C.) to obtain plasma sample within 15 minutes. Brain collection: The animal was euthanized under CO2. A mid-line incision was made in the animal's scalp and skin retracted. The skull overlying the brain was removed. The whole brain was collected, rinsed with cold saline, dried on filtrate paper, weighted, snap frozen by placing into dry-ice. The sample was homogenized with 3 volumes (v/w) of PBS prior to analysis. Samples were analysed on an LC-MS/MS-19 (Triple Quad 5500) in positive ion ESI mode following sample prep and HPLC elution: Mobile Phase: • Mobile Phase A: H2O—0.025% FA—1 mM NH4OAC • Mobile Phase B: MeOH—0.025% FA—1 mM NH4OAc • Column: waters BEH C18 (2.1×50 mm, 1.7 μm) • Flow rate: 0.60 mL/min • Column temperature: 60° C.

T1 sequence (P01116 1-188 isoform P01116-2 G12C): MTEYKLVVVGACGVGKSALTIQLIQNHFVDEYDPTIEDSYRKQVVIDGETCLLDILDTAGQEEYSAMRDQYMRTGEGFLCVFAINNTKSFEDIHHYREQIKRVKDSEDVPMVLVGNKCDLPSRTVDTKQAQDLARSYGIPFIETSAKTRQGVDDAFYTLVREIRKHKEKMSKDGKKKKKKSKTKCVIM

CCCC(c1ccc(OCC(=O)NCCOCCOCCOCCOCCOCCNC(=O)c2ccc(-c3ccc4c(c3)[C@H](Nc3ccc(Cl)cc3)C[C@H](C)N4C(C)=O)cc2)cc1)N(C)C(=O)/C(C#N)=C/c1nccs1 (stereo partly drawn) [Example A2, 4-((2S,4R)-1-acetyl-4-((4-chlorophenyl)amino)-2-methyl-1,2,3,4-tetrahydroquinolin-6-yl)-N-(1-(4-(1-((E)-2-cyano-N-methyl-3-(thiazol-2-yl)acrylamido)butyl)phenoxy)-2-oxo-6,9,12,15,18-pentaoxa-3-azaicosan-20-yl)benzamide]
# tumor cell lines GI50, <1 μM (tumor cell lines [1]): 100% | # tumor cell lines Highly sensitive (tumor cell lines [1]; highly sensitive = degrader GI50 >3 fold more potent than inhibitor): 66% | # tumor cell lines Low sensitivity/Resistant (tumor cell lines [1]; low sensitivity/resistant = degrader GI50 < inhibitor): 15% | IC50 (MV4;11 cells): 2 nM

Cc1ncsc1-c1ccc(CNC(=O)[C@@H]2C[C@@H](O)CN2C(=O)[C@@H](NC(=O)COCCOCCOCCNC(=O)C[C@@H]2N=C(c3ccc(Cl)cc3)c3c(sc(C)c3C)-n3c(C)nnc32)C(C)(C)C)cc1 [VHL PROTAC (MZ1), MZ1]
# tumor cell lines GI50, <1 μM (tumor cell lines [2]): 83% | # tumor cell lines Low sensitivity/Resistant (tumor cell lines [2]): 26% | # tumor cell lines Highly sensitive (tumor cell lines [2]): 47%

CCCC(NC(=O)/C(C#N)=C/c1nccs1)c1ccc(OCC(=O)NCCOCCOCCOCCOCCOCCNC(=O)c2ccc(-c3ccc4c(c3)[C@H](Nc3ccc(Cl)cc3)C[C@H](C)N4C(C)=O)cc2)cc1 (stereo partly drawn) [Example A1, 4-((2S,4R)-1-acetyl-4-((4-chlorophenyl)amino)-2-methyl-1,2,3,4-tetrahydroquinolin-6-yl)-N-(1-(4-(1-((E)-2-cyano-3-(thiazol-2-yl)acrylamido)butyl)phenoxy)-2-oxo-6,9,12,15,18-pentaoxa-3-azaicosan-20-yl)benzamide]
IC50 (MV4;11 cells): 48 nM

C=CC(=O)N1CCN(c2nc(OC[C@@H]3CCCN3CCCCNC(=O)CCc3ccc(C(CCC)N(C)C(=O)/C(C#N)=C/c4nccs4)cc3)nc3c2CCN(c2cccc4cccc(Cl)c24)C3)C[C@@H]1CC#N (stereo partly drawn) [Example A64, (E)-N-[1-[4-[3-[4-[(2S)-2-[[7-(8-chloro-1-naphthyl)-4-[(3S)-3-(cyanomethyl)-4-prop-2-enoyl-piperazin-1-yl]-6,8-dihydro-5H-pyrido[3,4-d]pyrimidin-2-yl]oxymethyl]pyrrolidin-1-yl]butylamino]-3-oxo-propyl]phenyl]butyl]-2-cyano-N-methyl-3-thiazol-2-yl-prop-2-enamide]
residual KRas (G12C) abundance (mutant KRas (G12C)): less than 50%

CCCC(c1ccc(OCC(=O)NCCOCCOCCOCCOCCOCCNC(=O)c2ccc(-c3ccc4c(c3)[C@H](Nc3ccc(Cl)cc3)C[C@H](C)N4C(C)=O)cc2)cc1)N(C)C(=O)/C=C/c1nccs1 (stereo partly shown) [Example A6]
DC50 (HiBit-BRD4): < 10000 nM

CCCC1c2ccc(OCCN3CCC(C(=O)Nc4ncc(SCc5ncc(C(C)(C)C)o5)s4)CC3)cc2CCN1C(=O)/C(C#N)=C/c1cccc(Br)n1 (stereo not shown) [Example A37]
bioavailability ([3]; 10 mg/kg oral vs 1 mg/kg intravenous): 7.2% | AUC(0-inf) ([3]; intravenous 1 mg/kg dose): 841 ng·h/mL | AUC(0-inf) ([3]; oral 10 mg/kg dose): 605 ng·h/mL

Cc1sc2c(c1C)C(c1ccc(Cl)cc1)=N[C@@H](CC(=O)NCCCCCCCCNC(=O)COc1cccc3c1C(=O)N(C1CCC(=O)NC1=O)C3=O)c1nnc(C)n1-2 (stereo partly shown) [CRBN PROTAC (dBET6), dBET6]
# tumor cell lines GI50, <1 μM (tumor cell lines [2]): 58% | # tumor cell lines Low sensitivity/Resistant (tumor cell lines [2]): 52% | # tumor cell lines Highly sensitive (tumor cell lines [2]): 29%

CCCC(c1ccc(CCCN2CCC(CNc3ncc(SCc4ncc(C(C)(C)C)o4)s3)CC2)cc1)N(C)C(=O)/C(C#N)=C/c1nc2ccccc2s1 (stereo not shown) [Example A39, 3-(benzo[d]thiazol-2-yl)-N-(1-(4-(3-(4-(((5-(((5-(tert-butyl)oxazol-2-yl)methyl)thio)thiazol-2-yl)amino)methyl)piperidin-1-yl)propyl)phenyl)butyl)-2-cyano-N-methylacrylamide]
brain AUC(0-INF) [4]: 845 ng·h/mL | Kp ([4]; female, mouse, brain and plasma, ratio of AUC(0-INF)): 0.6 | AUC(0-inf) ([4]; female, mouse, plasma): 1340 ng·h/mL
